Several values for one entry are separate records, joined by “and”; a condition that tells them apart may be missing. Identical values can stand only once.
Tests used:
Chinchillas [1] = assay: Noise-induced hearing loss, round window application (Example 8); type: in vivo, chinchilla; set-up: threshold shift, 0.5 kHz / threshold shift, 1 kHz / threshold shift, 2 kHz / threshold shift, 4 kHz / threshold shift, 8 kHz / average threshold shift, 0.5 kHz / average threshold shift, 1 kHz / average threshold shift, 2 kHz / average threshold shift, 4 kHz / average threshold shift, 8 kHz: unit not given here; conditions: for average threshold shift, 0.5 kHz / average threshold shift, 1 kHz / average threshold shift, 2 kHz / average threshold shift, 4 kHz / average threshold shift, 8 kHz: Table XIV; for threshold shift, 0.5 kHz / threshold shift, 1 kHz / threshold shift, 2 kHz / threshold shift, 4 kHz / threshold shift, 8 kHz: individual animals, listed as CH65
Protocol: Chinchillas (N=8) were used in studies of noise-induced hearing loss. The animals' hearing sensitivity was measured using standard electrophysical techniques before the experimental manipulation. […] Animals were anesthetized, the auditory bullae were opened, and the left and right cochleas were visualized. The round window leading to the scala tympani of the cochlea was used as the access point for drug application. […] In each case, the solution was allowed to set on the round window for 30 minutes, then the auditory bullae were closed. Subsequently, the animals were exposed to 4 kHz band noise at 105 dB SPL for four hours. Following the noise exposure, the animals' hearing was tested at day 1, day 3, day 7, and day 20 to determine evoked potential threshold shifts. Permanent threshold shift was assessed at day 20. The cochleas were harvested at day 20 to allow for morphological examination of the cochleas.

Chinchillas [2] = assay: Noise-induced hearing loss, round window application (Example 12); type: in vivo, chinchilla; conditions: 4 kHz band noise at 105 dB SPL, four hours, day 1, 7, 21
Protocol: Chinchillas (N=6) were used in studies of noise-induced hearing loss. The animals' hearing sensitivity was measured using standard electrophysical techniques before the experimental manipulation. […] Animals were anesthetized, the auditory bullae were opened, and the left and right cochleas were visualized. The round window leading to the scala tympani of the cochlea was used as the access point for drug application. […] A control solution of 3 mM DMSO in […] of saline solution was placed on the round window of the other ear. The solution was allowed to set on the round window for 30 minutes, then the auditory bullae were closed. Subsequently, the animals were exposed to 4 kHz band noise at 105 dB SPL for four hours. Following the noise exposure, the animals' hearing was tested at day 1, day 7, and day 21 to determine evoked potential threshold shifts. Permanent threshold shift was assessed at day 21.

Guinea pigs = assay: Cisplatin-induced hearing loss; type: in vivo, guinea pig; conditions: subcutaneous, prior to cisplatin
Protocol: The effects of high level noise and ototoxic drugs, such as cisplatin or the class of aminoglycosides, share several common features in the inner ear. First, the noise and/or drugs alter the free radical/antioxidant levels in the cochlea (inner ear). […] Guinea pigs (N=7) were used in studies of cisplatin-induced hearing loss. The animals' hearing sensitivity was measured using standard electrophysical techniques before the experimental manipulation. […] Animals were anesthetized and treated with cisplatin. Subsequently, the animals' hearing was tested to determine evoked potential threshold shifts.
Animals were treated subcutaneously with KX1-004 prior to the cisplatin-induced hearing loss.

pp60^c-src [3] = biological target: T1, pp60^c-src (Homo sapiens, UniProt P12931); conditions: literature value; read-out: IC50 (μM), Lit; cited from earlier work
Target sequence in this assay (P12931 whole entry, species assumed): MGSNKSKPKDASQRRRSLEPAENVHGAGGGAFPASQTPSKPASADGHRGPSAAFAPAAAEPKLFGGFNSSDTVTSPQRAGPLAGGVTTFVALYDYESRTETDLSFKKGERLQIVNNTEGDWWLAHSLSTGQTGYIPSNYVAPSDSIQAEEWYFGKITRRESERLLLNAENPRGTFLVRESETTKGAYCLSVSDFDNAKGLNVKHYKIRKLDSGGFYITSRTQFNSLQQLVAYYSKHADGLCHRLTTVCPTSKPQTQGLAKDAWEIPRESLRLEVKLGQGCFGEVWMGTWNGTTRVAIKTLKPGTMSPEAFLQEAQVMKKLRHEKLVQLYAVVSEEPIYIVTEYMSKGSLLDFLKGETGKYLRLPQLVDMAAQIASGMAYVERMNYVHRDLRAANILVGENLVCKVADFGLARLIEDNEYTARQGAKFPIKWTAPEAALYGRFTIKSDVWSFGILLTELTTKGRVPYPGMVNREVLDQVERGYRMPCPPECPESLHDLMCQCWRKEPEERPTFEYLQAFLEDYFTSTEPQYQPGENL

pp60^c-src [4] = biological target: T1, pp60^c-src; assay: Src inhibition (RR-SRC phosphorylation), Cellular Mimetic assay; conditions: inhibitor 100 μM; Table IX
Target sequence in this assay (P12931 whole entry): as the sequence (P12931 whole entry, species assumed) above

SMILES: O=C(NCc1cccc(O)c1)c1cc2cc(F)ccc2[nH]1 [KX1-004]
- average threshold shift, 0.5 kHz (Chinchillas [1]; Day 1): 3.75
- average threshold shift, 1 kHz (Chinchillas [1]; Day 1): 6.875
- average threshold shift, 2 kHz (Chinchillas [1]; Day 1): 25
- average threshold shift, 4 kHz (Chinchillas [1]; Day 1): 42
- average threshold shift, 8 kHz (Chinchillas [1]; Day 1): 22.5
- threshold shift, 0.5 kHz (Chinchillas [1]; Day 1): 0 (2×) and 5 and 10
- threshold shift, 1 kHz (Chinchillas [1]; Day 1): 2.5 and 20 and 0 and 5
- threshold shift, 2 kHz (Chinchillas [1]; Day 1): 0 and 25 and 20 and 55
- threshold shift, 4 kHz (Chinchillas [1]; Day 1): 10 and 35 and 68 and 55
- threshold shift, 8 kHz (Chinchillas [1]; Day 1): 0 and 30 and 35 and 25
- average threshold shift, 0.5 kHz (Chinchillas [1]; Day 3): 5.4
- average threshold shift, 1 kHz (Chinchillas [1]; Day 3): 6.9
- average threshold shift, 2 kHz (Chinchillas [1]; Day 3): 18
- average threshold shift, 4 kHz (Chinchillas [1]; Day 3): 27
- average threshold shift, 8 kHz (Chinchillas [1]; Day 3): 15
- threshold shift, 0.5 kHz (Chinchillas [1]; Day 3): 5 (3×) and 0 and 12
- threshold shift, 1 kHz (Chinchillas [1]; Day 3): 7.5 and 5 and 2 and 0 and 20
- threshold shift, 2 kHz (Chinchillas [1]; Day 3): 0 (2×) and 15 and 40 and 35
- threshold shift, 4 kHz (Chinchillas [1]; Day 3): 10 and 0 and 25 and 55 and 45
- threshold shift, 8 kHz (Chinchillas [1]; Day 3): 0 (2×) and 15 (2×) and 45
- average threshold shift, 0.5 kHz (Chinchillas [1]; Day 7): 8
- average threshold shift, 1 kHz (Chinchillas [1]; Day 7): 6
- average threshold shift, 2 kHz (Chinchillas [1]; Day 7): 15
- average threshold shift, 4 kHz (Chinchillas [1]; Day 7): 24
- average threshold shift, 8 kHz (Chinchillas [1]; Day 7): 18
- threshold shift, 0.5 kHz (Chinchillas [1]; Day 7): 0 and 5 and 8 and 15 and 12
- threshold shift, 1 kHz (Chinchillas [1]; Day 7): 0 (3×) and 15 (2×)
- threshold shift, 2 kHz (Chinchillas [1]; Day 7): 0 (2×) and 15 and 40 and 20
- threshold shift, 4 kHz (Chinchillas [1]; Day 7): 0 and 5 and 15 and 55 and 45
- threshold shift, 8 kHz (Chinchillas [1]; Day 7): 0 (2×) and 20 and 30 and 40
- average threshold shift, 0.5 kHz (Chinchillas [1]; Day 20): 3
- average threshold shift, 1 kHz (Chinchillas [1]; Day 20): 1.25
- average threshold shift, 2 kHz (Chinchillas [1]; Day 20): 6.25
- average threshold shift, 4 kHz (Chinchillas [1]; Day 20): 9
- average threshold shift, 8 kHz (Chinchillas [1]; Day 20): 3.75
- threshold shift, 0.5 kHz (Chinchillas [1]; Day 20): 0 (2×) and 5 and 7
- threshold shift, 1 kHz (Chinchillas [1]; Day 20): 0 (3×) and 5
- threshold shift, 2 kHz (Chinchillas [1]; Day 20): 0 (2×) and 15 and 10
- threshold shift, 4 kHz (Chinchillas [1]; Day 20): 0 (2×) and 11 and 25
- threshold shift, 8 kHz (Chinchillas [1]; Day 20): −5 and 5 and 0 and 15
- average threshold shift, 0.5 kHz (Chinchillas [1]; Pretest): 26.6
- average threshold shift, 1 kHz (Chinchillas [1]; Pretest): 24.5
- average threshold shift, 2 kHz (Chinchillas [1]; Pretest): 20
- average threshold shift, 4 kHz (Chinchillas [1]; Pretest): 12.4
- average threshold shift, 8 kHz (Chinchillas [1]; Pretest): 4
- threshold shift, 0.5 kHz (Chinchillas [1]; Pretest): 30 and 35 and 25 and 20 and 23
- threshold shift, 1 kHz (Chinchillas [1]; Pretest): 22.5 and 25 (4×)
- threshold shift, 2 kHz (Chinchillas [1]; Pretest): 25 (3×) and 10 and 15
- threshold shift, 4 kHz (Chinchillas [1]; Pretest): 20 and 10 and 12 and 5 and 15
- threshold shift, 8 kHz (Chinchillas [1]; Pretest): 10 (2×) and 0 (3×)
- protection against the noise exposure (Chinchillas [1]; in vivo, listed as CH-65): provided protection against the noise exposure
- average dB threshold shifts, treated ears versus control (Chinchillas [2]): lower
- protection against cisplatin-induced hearing loss (Guinea pigs): protected against ciplatin-induced hearing loss

SMILES: CCOc1cc(/C=C(\C#N)C(N)=O)cc(CSc2ccccc2)c1O [ST-638, reference compound]
- IC50 (pp60^c-src [3]): 18 µM
- % Inhibition at 100 μM (std. dev.) (pp60^c-src [4]): 37 (+/−5) %
